Experimental data taken from the supplement of paper PMC10307832.

Columns and labels:
Assay in all cases: relative viability (nuclei count vs DMSO), 5 days (fraction); higher = more cells survive
[1] = compound: CCN(CCO)CCCC(C)Nc1ccnc2cc(Cl)ccc12 [Hydroxychloroquine] + C[C@]1(O)C[C@@H](c2nc(-c3ccc4ccc(-c5ccccc5)nc4c3)c3c(N)nccn32)C1 [Linsitinib] (partner 1 µM)
How it was run: (§1)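 Relative viability is defined as nuclei in treated wells over nuclei in vehicle wells. Duplicate plates were run and medians reported. Lung cancer cell lines in 1536-well plates were dosed by pin tool one day after seeding, with one drug or with a fixed anchor-drug dose plus five library-drug doses (not always all listed) in √10 steps, and nuclei were counted after 5 days.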

[2] = compound: CCN(CCO)CCCC(C)Nc1ccnc2cc(Cl)ccc12 [Hydroxychloroquine] + CS(=O)(=O)CCNCc1ccc(-c2ccc3ncnc(Nc4ccc(OCc5cccc(F)c5)c(Cl)c4)c3c2)o1 [Lapatinib] (partner 2 µM)
How it was run: as §1

[3] = compound: CCN(CCO)CCCC(C)Nc1ccnc2cc(Cl)ccc12 [Hydroxychloroquine] + CCNC(=O)c1noc(-c2cc(C(C)C)c(O)cc2O)c1-c1ccc(CN2CCOCC2)cc1 [Luminespib] (partner 0.01 µM)
How it was run: as §1

[4] = compound: CCN(CCO)CCCC(C)Nc1ccnc2cc(Cl)ccc12 [Hydroxychloroquine] + COc1cccc2cc(-c3nc([C@H]4CC[C@H](C(=O)O)CC4)n4ncnc(N)c34)[nH]c12 [OSI-027] (partner 0.5 µM)
How it was run: as §1

Cell Line	relative viability ([1]; first compound 0.5 µM)	relative viability ([1]; first compound 1.581 µM)	relative viability ([1]; first compound 5 µM)	relative viability ([1]; first compound 15.81 µM)	relative viability ([1]; first compound 50 µM)	relative viability ([2]; first compound 0.5 µM)	relative viability ([2]; first compound 1.581 µM)	relative viability ([2]; first compound 5 µM)	relative viability ([2]; first compound 15.81 µM)	relative viability ([2]; first compound 50 µM)	relative viability ([3]; first compound 0.5 µM)	relative viability ([3]; first compound 1.581 µM)	relative viability ([3]; first compound 5 µM)	relative viability ([3]; first compound 15.81 µM)	relative viability ([3]; first compound 50 µM)	relative viability ([4]; first compound 0.5 µM)	relative viability ([4]; first compound 1.581 µM)	relative viability ([4]; first compound 5 µM)	relative viability ([4]; first compound 15.81 µM)	relative viability ([4]; first compound 50 µM)
H3255	0.946	0.999	0.976	0.944	0.982	0.272	0.243	0.205	0.248	0.202	0.966	0.874	0.912	0.819	0.742	0.653	0.524	0.569	0.6	0.665
EPLC-272H	1.13	1	1.2	1.12	1.25	0.988	0.879	0.77	0.877	1.06	0.188	0.388	0.264	0.289	0.33	0.249	0.232	0.276	0.252	0.314
RERF-LC-KJ	0.896	0.885	0.911	0.854	0.822	0.847	0.805	0.942	0.779	0.94	1.08	1.22	1.31	1.14	1.1	0.587	0.5	0.537	0.631	0.609
NCI-H1793	0.774	0.758	1.06	0.941	0.964	0.57	0.556	0.649	0.603	0.691	0.357	0.197	0.16	0.15	0.194	0.334	0.226	0.226	0.234	0.262
EKVX	0.929	1.01	1.09	0.955	1.05	0.246	0.181	0.224	0.168	0.199	0.894	0.887	0.836	0.836	0.865	0.797	0.851	0.79	0.758	0.776
ChaGo-K-1											0.615	0.626	0.55	0.594	0.643	0.688	0.675	0.498	0.53	0.609
NCI-H23	0.499	0.693	0.56	0.553	0.546	1.08	0.915	0.957	1.22	1.1	0.23	0.218	0.22	0.215	0.216	0.684	0.447	0.572	0.535	0.572
NCI-H1703	0.601	0.418	0.8	0.614	1.09	0.959		1.05	1.29	0.763										
EBC-1	0.953	0.505	0.992	0.769	0.915	0.212	0.183	0.213	0.225	0.182										
NCI-H1299	1.03	0.633	1.03	0.973	1.06	0.965	0.914	0.903	0.919	0.936										
NCI-H2170						0.261	0.251	0.275	0.276	0.267	0.543	0.646	0.765	0.714	1.01	0.63	0.776	0.685	0.702	0.806
NCI-H1648																	0.283	0.273	0.254	0.274
LCLC-103H	1.16	1.08	1.07	1.01	1.16						0.983	0.921	1.05	1.11	1.1	0.482	0.488	0.547	0.465	0.562
NCI-H1650						0.844	0.697	0.702	0.75	0.765	0.178	0.173	0.203	0.227	0.193	0.653	0.729	0.634	0.562	0.577
SW 900											0.156	0.176	0.195	0.17	0.177	0.491	0.664	0.482	0.547	0.505
IA-LM	0.569	0.281	0.66	0.383	0.695	0.863	1.09	0.862	0.869	0.795										
HCC-366	0.573	0.769	0.613	0.627	0.796	0.968	1.06	1.02	1.15	1.19						0.896	0.932	0.673	0.862	1.05
NCI-H441	0.561	0.497	0.627	0.664	0.699						0.361	0.334	0.328	0.417	0.329	0.749	0.443	0.579	0.669	0.584
NCI-H522											1.17	1.12	1.08	1.31	1.32	0.718	0.671	0.712	0.684	0.682
HCC-78	0.49	0.728	0.304	0.516	0.455	1.29	0.706	0.492	0.746	0.764						0.377	0.376	0.366	0.323	0.349
